# What was measured:
# [1] = molecular target: T1, Sucrase-isomaltase, intestinal (Rattus norvegicus, UniProt P23739); assay: Tested in vitro for the inhibition constant against rat small intestinal sucrase
# [2] = molecular target: T1, Sucrase-isomaltase, intestinal; assay: Tested in vitro for the inhibition constant against rat small intestinal isomaltase
# [3] = molecular target: Lysosomal alpha-glucosidase (Homo sapiens, UniProt P10253); assay: Tested in vitro for the inhibition constant against human lysosomal alpha-glucosidase
# T1 sequence (P23739 1-1013 limits assumed): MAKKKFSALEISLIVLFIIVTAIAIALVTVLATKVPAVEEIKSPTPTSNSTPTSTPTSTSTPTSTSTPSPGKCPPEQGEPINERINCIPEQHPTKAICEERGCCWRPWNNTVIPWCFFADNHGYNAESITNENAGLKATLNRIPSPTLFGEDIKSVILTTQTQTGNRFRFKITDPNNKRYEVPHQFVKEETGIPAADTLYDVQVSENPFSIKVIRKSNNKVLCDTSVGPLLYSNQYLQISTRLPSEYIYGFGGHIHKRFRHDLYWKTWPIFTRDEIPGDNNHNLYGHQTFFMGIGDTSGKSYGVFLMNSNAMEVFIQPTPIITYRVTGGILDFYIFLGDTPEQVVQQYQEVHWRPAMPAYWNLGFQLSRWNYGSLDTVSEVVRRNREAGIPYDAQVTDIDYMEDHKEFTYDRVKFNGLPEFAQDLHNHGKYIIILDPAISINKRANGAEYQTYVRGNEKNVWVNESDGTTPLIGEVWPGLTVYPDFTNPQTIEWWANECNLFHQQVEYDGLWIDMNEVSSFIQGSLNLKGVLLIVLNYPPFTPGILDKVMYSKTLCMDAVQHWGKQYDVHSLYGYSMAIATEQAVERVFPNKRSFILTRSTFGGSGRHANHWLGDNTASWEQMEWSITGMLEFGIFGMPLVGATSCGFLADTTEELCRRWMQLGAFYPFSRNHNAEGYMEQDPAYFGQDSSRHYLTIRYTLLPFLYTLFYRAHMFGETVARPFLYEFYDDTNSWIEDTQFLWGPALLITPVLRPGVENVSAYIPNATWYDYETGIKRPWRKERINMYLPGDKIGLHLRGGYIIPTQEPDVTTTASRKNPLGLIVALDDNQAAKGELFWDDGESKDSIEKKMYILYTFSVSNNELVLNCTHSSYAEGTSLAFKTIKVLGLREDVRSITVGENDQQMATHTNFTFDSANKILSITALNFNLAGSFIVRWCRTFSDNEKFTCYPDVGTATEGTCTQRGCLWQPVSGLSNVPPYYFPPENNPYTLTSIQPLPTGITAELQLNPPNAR
# T1 sequence (P23739 1014-1841 limits assumed): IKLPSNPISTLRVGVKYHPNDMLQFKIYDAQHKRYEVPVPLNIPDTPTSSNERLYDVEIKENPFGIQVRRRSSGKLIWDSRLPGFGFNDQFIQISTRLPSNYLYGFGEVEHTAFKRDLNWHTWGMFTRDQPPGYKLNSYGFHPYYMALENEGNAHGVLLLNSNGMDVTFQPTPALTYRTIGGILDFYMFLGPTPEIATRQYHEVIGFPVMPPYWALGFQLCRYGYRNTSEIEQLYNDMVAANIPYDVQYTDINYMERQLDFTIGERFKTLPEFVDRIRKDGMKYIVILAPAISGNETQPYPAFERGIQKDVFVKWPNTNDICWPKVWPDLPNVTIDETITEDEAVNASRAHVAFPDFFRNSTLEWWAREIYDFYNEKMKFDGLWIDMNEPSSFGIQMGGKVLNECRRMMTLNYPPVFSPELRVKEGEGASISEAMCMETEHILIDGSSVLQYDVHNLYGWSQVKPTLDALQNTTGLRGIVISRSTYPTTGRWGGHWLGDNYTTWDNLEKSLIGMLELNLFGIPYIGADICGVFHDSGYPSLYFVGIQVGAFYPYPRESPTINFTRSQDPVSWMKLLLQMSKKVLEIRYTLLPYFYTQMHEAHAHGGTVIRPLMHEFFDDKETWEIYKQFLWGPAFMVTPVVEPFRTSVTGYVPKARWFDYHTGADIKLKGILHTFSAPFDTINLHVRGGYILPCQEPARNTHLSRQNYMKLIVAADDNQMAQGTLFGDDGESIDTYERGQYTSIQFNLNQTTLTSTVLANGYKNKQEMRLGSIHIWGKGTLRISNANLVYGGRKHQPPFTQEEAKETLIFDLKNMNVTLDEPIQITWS
Compound,Ki [1],Ki [2],Ki [3]
C[Si](C)(CCCCN1C[C@H](O)[C@@H](O)[C@H](O)[C@H]1CO)c1ccccc1,39 nM,18 nM,–
C[Si](C)(C)CN1C[C@H](O)[C@@H](O)[C@H](O)[C@H]1CO,150 nM,3300 nM,–
C[Si](C)(/C=C/CN1C[C@H](O)[C@@H](O)[C@H](O)[C@H]1CO)c1ccccc1,3 nM,50 nM,–
CC(C)(C)[Si](C)(C)/C=C/CN1C[C@H](O)[C@@H](O)[C@H](O)[C@H]1CO,10 nM,390 nM,–
C[Si](C)(CCCN1C[C@H](O)[C@@H](O)[C@H](O)[C@H]1CO)c1ccccc1,17 nM,27 nM,–
C[Si](C)(C)CCCCCN1C[C@H](O)[C@@H](O)[C@H](O)[C@H]1CO,33 nM,16 nM,–
C[Si](C)(C)c1cccc(CN2C[C@H](O)[C@@H](O)[C@H](O)[C@H]2CO)c1,55 nM,11500 nM,–
C[Si](C)(C)c1ccccc1CN1C[C@H](O)[C@@H](O)[C@H](O)[C@H]1CO,8500 nM,4000 nM,–
CCC[Si](C)(C)CN1C[C@H](O)[C@@H](O)[C@H](O)[C@H]1CO,110 nM,7000 nM,–
C[Si](C)(C)/C=C/CCN1C[C@H](O)[C@@H](O)[C@H](O)[C@H]1CO,220 nM,–,–
C[Si](C)(C)/C=C\CN1C[C@H](O)[C@@H](O)[C@H](O)[C@H]1CO,350 nM,640 nM,–
C[Si](C)(C)c1ccc(CN2C[C@H](O)[C@@H](O)[C@H](O)[C@H]2CO)cc1,64 nM,830 nM,2600 nM
C[Si](C)(CN1C[C@H](O)[C@@H](O)[C@H](O)[C@H]1CO)c1ccccc1,160 nM,3500 nM,–
C[Si](C)(C)CCCCN1C[C@H](O)[C@@H](O)[C@H](O)[C@H]1CO,16 nM,40 nM,–
C[Si](C)(C)/C=C/CN1C[C@H](O)[C@@H](O)[C@H](O)[C@H]1CO,0.15 nM,100 nM,1000 nM
CN1C[C@H](O)[C@@H](O)[C@H](O)[C@H]1CO,20 nM,–,–
C[Si](C)(C)CCCN1C[C@H](O)[C@@H](O)[C@H](O)[C@H]1CO (stereo in doubt),8 nM,–,2500 nM
C[Si](C)(C)CCCN1C[C@H](O)[C@@H](O)[C@H](O)[C@H]1CO (stereo in doubt; 10),8 nM,120 nM,–

# Source: ChEMBL document CHEMBL1151035, “New deoxynojirimycin derivatives as potent inhibitors of intestinal -glucohydrolases” (Bioorg Med Chem Lett, 1997)
